Measurements from patent publication US10201552B2, “Method of increasing the bioavailability of an HIV drug” (HOWARD UNIVERSITY, priority 2013, dated 2019).

Key:
[1] = system: Unactivated Human T-Cells; experiment: Uptake of radio labeled Tenofovir in human T-cells in presence and absence of ABC efflux pump inhibitors; type: cell-based; conditions: with specific MRP, BCRP and Pgp inhibitors vs without
Protocol: ABC efflux pump inhibitors. Briefly, human T-cells in the culture media (1 million/mL) were transferred to 15 mL centrifuge tubes. Radio labeled Tenofovir was added to the control tube and radio labeled Tenofovir along with defined concentrations of efflux pump inhibitors were added to the treatment tubes. The tubes were incubated for 15 minutes under culture conditions (37° C., 5% CO2/95% relative humidity). Following incubation, the tubes were centrifuged at 2000 rpm for 15 min and the supernatant is discarded. Ice cold stop solution (210 mM KCl, 2 mM HEPES [pH 7.4]) was added to stop the reaction. The cells were resuspended in stop solution to ensure washing and centrifuged at 2000 rpm for 15 min. The treatment with stop solution, washing and centrifugation is repeated to ensure through washing. 1 mL lysis solution (0.3 M NaOH, 0.1% Triton X-100) was added to the cell pellet and samples and incubated overnight to ensure complete cell lysis. Intracellular concentrations were analyzed by Beckman LS 6500 automated Scintillation Counter.

[2] = administered orally as disoproxil ester prodrug; cited from earlier work

Structure (SMILES): C[C@H](Cn1cnc2c(N)ncnc21)OCP(=O)(O)O [Tenofovir]
- intracellular accumulation of Tenofovir [1]: significant increase
- bioavailability [2]: ≥ 20%
